Patent US12129493B2, “Host cells and methods useful for producing unnatural terpenoids using a novel artificial metalloenzyme” (The Regents of the University of California, priority 2020, dated 2024)
“And” between values parts separate entries of the source, which are not always exact repeats. Equal entries are not always repeated. “Also recorded” adds a separate entry of the source.

Tests used:
[1] = molecular target: T1, Sulfolobus CYP119 (cytochrome P450 119, parent sequence SEQ ID NO: 1), apo form, CYP119-141 mutant (C317G, T213G, V254L, L155W) (Sulfolobus acidocaldarius, UniProt Q55080, C317G/L155W/T213G/V254L); test: Binding affinity of apo-CYP119 towards Ir(Me)MPIX/hemin (intrinsic fluorescence quenching, Benesi-Hildebrand); parameters: species or system Sulfolobus solfataricus; conditions: excitation 294 nm, 10 mM TRIS buffer pH 8.0, Benesi-Hildebrand analysis
T1 construct: made in house
Description: Intrinsic fluorescence quenching;^8 Modified from a reported procedure, aliquots (10 μL) of metalloporphyrin stock solutions (in DMSO) were added to a solution containing 0.15 mg/L apo-CYP119 (CYP119-141 mutant, 800 μL, 10 mM TRIS buffer, pH 8.0). This addition caused the concentration of the protein to decrease from its initial value to a final concentration of 0.148 mg/L in the process. After each addition, the emission spectrum of CYP119 was recorded upon excitation at 294 nm. In quenching experiments, the concentration of the chromophore (CYP119 or porphyrin) was kept sufficiently low (<0.15) to ensure uniform light absorption throughout the sample and reduced inner filter effects. The fluorescence emission intensity was calculated as the integral of the emission spectrum in the recorded wavelength range (305-450 nm).

[2] = test system: E. coli cells expressing limonene biosynthetic pathway; test: Effect of Ir(Me)MPIX addition on limonene titer; type: cell-based; conditions: 0.1 μM Ir(Me)MPIX in DMSO
Description: 6. Limonene biosynthesis. Chemically competent BL21(DE3) (NEB) cells were transformed with a plasmid coding for MEV pathway enzymes to produce limonene from glucose in E. coli (pJBEI6410 or pJBEI6409). […] The cultures were grown overnight at 30° C. and 200 rpm for 18 h. In a 50 mL glass culture tube, 10 mL of M9-rich media was inoculated with 100 μL of overnight starter culture and incubated at 37° C. and 200 rpm to an OD600 of ˜1. Unless otherwise indicated, the cultures were then induced by adding 50 μM IPTG (final concentration), and 10% (v/v) dodecane was added to trap the limonene produced. Upon induction, the temperature was reduced to 30° C. and expressions were allowed to continue for 24 h at 200 rpm. An aliquot of the 100 μL dodecane overlay was diluted with 900 μL ethyl acetate containing 40 mg/L beta-pinene (beta-pinene as internal standard) and analyzed by GC-MS.

BL21(DE3) cells = test: Cytotoxicity of Ir(Me)MPIX and cyclopropyl limonene, cell growth by OD600; conditions: for inhibition of cell growth: concentration range relevant for the study
Description: 10. […] Individual colonies from freshly transformed plates (incubated at 30° C.) were inoculated into 2 mL M9-rich media supplemented with appropriate antibiotics. A 1:100 dilution of overnight cultures into 300 μL M9-rich media was performed in a 48-well plate. […] The OD600 values were recorded by a plate reader (F200 or F200pro, Tecan) set at 30° C.
Cyclopropyl limonene; BL21(DE3) cells co-transformed with pHug21 (coding for HUG system) and pJHA110 (coding for CYP119 mutant) were grown and cultivated as described above. The stock solution of cyclopropyl limonene in ethanol was added to the cell culture to give final concentration of 0, 0.2, 1, 5, 25 mg/L cyclopropyl limonene and 1% (v/v) ethanol. The OD600 values were recorded by a plate reader (F200 or F200pro, Tecan) set at 30° C.

E. coli BL21(DE3) cells = test: Evaluation of the effect of Ir(Me)MPIX and cyclopropyl limonene on cell growth (OD600); type: cell-based, Escherichia coli; conditions: 30° C.
[3] = Cyclopropanation of (−)-limonene by Ir-CYP119 reconstituted in vitro or free cofactor; type: biochemical; conditions: Ir-CYP119 mutants reconstituted in vitro, average of two replicates
Description: 12. […] The buffer of the protein solution was subsequently exchanged to TRIS buffer (20 mM, pH 7.5) using a NAP-10 column (GE Healthcare). […] To the reaction vial, 10 μL of 0.125 M stock solution of limonene in EtOH was added. The reaction vial was sealed with a cap containing a septum. The syringes of a multichannel syringe pump were loaded with a stock solution of EDA in DMSO (20 μL of 0.25 M solution of EDA in DMSO), and the EDA solution was added to the reaction over 1.5 h. The reaction was quenched upon the conclusion of the addition of EDA by adding 100 μL of 2 N HCl and extracted with 1 mL dodecane stock solution (0.1% (v/v) in ethyl acetate). The organic layer was then transferred to a separate vial for GC analysis.

[4] = type: cell-based, E. coli; conditions: whole cells harboring Ir-CYP119 mutants, average of three biological repeats
CYP119 [5] = molecular target: T2, CYP119 (Sulfolobus acidocaldarius, UniProt Q55080, C317G/L155W/T213G/V254L); test: ICP-MS measurement of CYP119 purified from E. coli co-expressing heme transport system (100 mL culture); type: cell-based; conditions: 0.1 μM Ir(Me)MPIX, single replicates
T2 construct: made in house; host or cells: E. coli BL21(DE3), co-transformed with pHug21 (HUG) or pBbS5a (RFP control)
Description: (§1) (b) Protein purification (100 mL culture); A plasmid containing CYP119 mutant (pJHA110) was co-transformed with a plasmid (pHug21) encoding the heme transport system HUG, or an empty vector backbone (pBbS5a) into chemically competent BL21(DE3) (NEB) cells. Individual colonies from freshly transformed plates were inoculated into 4 mL M9-rich media supplemented with 100 μg/mL carbenicillin and 25 μg/mL kanamycin. The cultures were grown overnight at 37° C. and 200 rpm. In a 500 mL Erlenmeyer flask, 100 mL of M9-rich media was inoculated with 1 mL of overnight starter culture and incubated at 37° C. and 200 rpm to an OD600 of 0.7˜0.8. […] Upon induction, the incubation temperature was reduced to 30° C., and expressions were allowed to continue for 18 h at 200 rpm. Cells were harvested by centrifugation and stored at −20° C. until purification.
(§2) Cell debris was removed by centrifugation (10000 rpm, 45 min, 4° C.). The supernatants were incubated with Ni-NTA agarose (50% suspension, 4 mL) on a tube rotator (15 min, 4° C., 20 rpm) and poured into glass frits (coarse, 50 mL). The resin was washed (3×35 mL) with Ni-NTA lysis buffer (50 mM NaPi, 250 mM NaCl, 10 mM Imidazole, pH 8.0). The desired protein was eluded with 15 mL Ni-NTA elusion buffer (50 mM NaPi, 250 mM NaCl, 250 mM Imidazole, pH 8.0) and concentrated to 1 mL with a 30 kDa molecular weight cut-off Amicon centrifugal filtration device (EMD Millipore).
(§3) (c) ICP-MS analysis; Cone. HNO3 was added to each sample (1 mL) in to make a final concentration of 4% (v/v). After microwave digestion (140° C., 30 min), the samples were analyzed by ICP-MS (Elemental Analysis Core, Oregon Health & Science University).

CYP119 [6] = molecular target: T2, CYP119; test: Fe and Ir content of CYP119 purified from HUG/CYP119 E. coli (700 mL culture); type: cell-based; conditions: 0.2 mg/L Ir(Me)MPIX
Description: as §1, with “(b) Protein purification (100 mL culture); A plasmid containing CYP119 mutant (pJHA110) was co-transformed with a plasmid (pHug21) encoding the heme transport system HUG, or an empty vector backbone (pBbS5a) into chemically competent BL21(DE3) (NEB) cells.” left out
as §2, §3

[7] = 0, 0.1, 1, 10 μM Ir(Me)MPIX, M9-rich media

## CCC1=C(C)c2cc3[n-]c(cc4[n-]c(cc5nc(cc1n2)C(C)=C5CC)c(C)c4CCC(=O)O)c(CCC(=O)O)c3C.[CH3-].[Ir+3] [Ir(Me)MPIX]
[1]
  Kb: 4.2(0.3) × 10^5 M^−1
[1]; read-out: Kd
  Kd: 2400 nM
[2]
  effect on limonene titer: unaffected; also recorded: little impact
BL21(DE3) cells; BL21(DE3) expressing the HUG system, 0-10 μM
  effect on cell growth: little effect
BL21(DE3) cells; BL21(DE3) with empty vector pBbS5K, 0-10 μM
  effect on cell growth: little effect
BL21(DE3) cells
  inhibition of cell growth: did not inhibit cell growth
E. coli BL21(DE3) cells; [7]
  effect on growth of BL21(DE3) cells expressing the HUG system: little effect on the growth
  effect on growth of BL21(DE3) cells transformed with an empty vector pBbS5K: little effect on the growth

## CCOC(=O)[C@H]1C[C@@]1(C)[C@@H]1CC=C(C)CC1 [cyclopropyl limonene]
BL21(DE3) cells; BL21(DE3) with pHug21 and pJHA110, 0-25 mg/L
  effect on cell growth: little effect
BL21(DE3) cells
  inhibition of cell growth: did not inhibit cell growth
E. coli BL21(DE3) cells; 0, 0.2, 1, 5, 25 mg/L cyclopropyl limonene, 1% (v/v) ethanol
  effect on growth of BL21(DE3) cells co-transformed with pHug21 and pJHA110 (encoding CYP119): little effect on the growth

B1: P/256W: CYP119 mutant (C317G, T213G, V254L, L155W, R256W) (protein, UniProt Q55080 1-368, looked up, variant C317G T213G V254L L155W R256W)
Cytochrome P450 119: MYDWFSEMRKKDPVYYDGNIWQVFSYRYTKEVLNNFSKFSSDLTGYHERLEDLRNGKIRFDIPTRYTMLTSDPPLHDELRSMSADIFSPQKLQTLETFIRETTRSLLDSIDPREDDIVKKLAVPLPIIVISKILGLPIEDKEKFKEWSDLVAFRWGKPGEIFELGKKYLELIGYVKDHLNSGTEVVSRVVNSNLSDIEKLGYIILLLIAGNEGTTNLISNSVIDFTRFNLWQRIREENLYLKAIEEALRYSPPLMWTVRKTKERVKLGDQTIEEGEYVRVWIASANRDEEVFHDGEKFIPDRNPNPHLSFGSGIHLGLGAPLARLEARIAIEEFSKRFRHIEILDTEKVPNEVLNGYKRLVVRLKSNE
[3]
  in vitro diastereoselectivity (P2/Ptotal): 48%
[4]
  in vivo diastereoselectivity (P2/Ptotal): 63%

B2: RFP/CYP119: CYP119 purified from E. coli transformed with pBbS5a (RFP control) and pJHA110 (protein, UniProt Q55080 1-368, looked up)
Cytochrome P450 119: MYDWFSEMRKKDPVYYDGNIWQVFSYRYTKEVLNNFSKFSSDLTGYHERLEDLRNGKIRFDIPTRYTMLTSDPPLHDELRSMSADIFSPQKLQTLETFIRETTRSLLDSIDPREDDIVKKLAVPLPIIVISKILGLPIEDKEKFKEWSDLVAFRLGKPGEIFELGKKYLELIGYVKDHLNSGTEVVSRVVNSNLSDIEKLGYIILLLIAGNETTTNLISNSVIDFTRFNLWQRIREENLYLKAIEEALRYSPPVMRTVRKTKERVKLGDQTIEEGEYVRVWIASANRDEEVFHDGEKFIPDRNPNPHLSFGSGIHLCLGAPLARLEARIAIEEFSKRFRHIEILDTEKVPNEVLNGYKRLVVRLKSNE
CYP119 [5]
  Ir, total amount present in the purified protein: 0.66 nmol and 0.59 nmol and 0.62 nmol

B3: ChuA/Ton/CYP119: CYP119 purified from E. coli transformed with pJHA184 (ChuA and Ton complex) and pJHA110 (protein, UniProt Q55080 1-368, looked up)
Cytochrome P450 119: MYDWFSEMRKKDPVYYDGNIWQVFSYRYTKEVLNNFSKFSSDLTGYHERLEDLRNGKIRFDIPTRYTMLTSDPPLHDELRSMSADIFSPQKLQTLETFIRETTRSLLDSIDPREDDIVKKLAVPLPIIVISKILGLPIEDKEKFKEWSDLVAFRLGKPGEIFELGKKYLELIGYVKDHLNSGTEVVSRVVNSNLSDIEKLGYIILLLIAGNETTTNLISNSVIDFTRFNLWQRIREENLYLKAIEEALRYSPPVMRTVRKTKERVKLGDQTIEEGEYVRVWIASANRDEEVFHDGEKFIPDRNPNPHLSFGSGIHLCLGAPLARLEARIAIEEFSKRFRHIEILDTEKVPNEVLNGYKRLVVRLKSNE
CYP119 [5]
  Ir, total amount present in the purified protein: 0.83 nmol and 0.69 nmol and 0.87 nmol

B4: HUG/CYP119: CYP119 purified from E. coli transformed with pHug21 (HUG system) and pJHA110 (protein, UniProt Q55080 1-368, looked up)
Cytochrome P450 119: MYDWFSEMRKKDPVYYDGNIWQVFSYRYTKEVLNNFSKFSSDLTGYHERLEDLRNGKIRFDIPTRYTMLTSDPPLHDELRSMSADIFSPQKLQTLETFIRETTRSLLDSIDPREDDIVKKLAVPLPIIVISKILGLPIEDKEKFKEWSDLVAFRLGKPGEIFELGKKYLELIGYVKDHLNSGTEVVSRVVNSNLSDIEKLGYIILLLIAGNETTTNLISNSVIDFTRFNLWQRIREENLYLKAIEEALRYSPPVMRTVRKTKERVKLGDQTIEEGEYVRVWIASANRDEEVFHDGEKFIPDRNPNPHLSFGSGIHLCLGAPLARLEARIAIEEFSKRFRHIEILDTEKVPNEVLNGYKRLVVRLKSNE
CYP119 [5]
  Ir, total amount present in the purified protein: 3.15 nmol and 3.66 nmol and 3.08 nmol
CYP119 [6]
  Fe, total amount present in the purified protein: 0.044 µmol and 0.031 µmol and 0.035 µmol
  Fe:CYP119 (molar ratio): 12.4% and 8.5% and 9.1%
  Ir, total amount present in the purified protein: 0.039 µmol and 0.040 µmol and 0.041 µmol
  Ir:CYP119 (molar ratio): 11.0% and 11.1% and 10.8%

B5: P (C317G, T213G, V254L, L155W): parent CYP119 mutant (C317G, T213G, V254L, L155W) (protein)
chain: MYDWFSEMRKKDPVYYDGNIWQVFSYRYTKEVLNNFSKFSSDLTGYHERLEDLRNGKIRFDIPTRYTMLTSDPPLHDELRSMSADIFSPQKLQTLETFIRETTRSLLDSIDPREDDIVKKLAVPLPIIVISKILGLPIEDKEKFKEWSDLVAFRWGKPGEIFELGKKYLELIGYVKDHLNSGTEVVSRVVNSNLSDIEKLGYIILLLIAGNEGTTNLISNSVIDFTRFNLWQRIREENLYLKAIEEALRYSPPLMRTVRKTKERVKLGDQTIEEGEYVRVWIASANRDEEVFHDGEKFIPDRNPNPHLSFGSGIHLGLGAPLARLEARIAIEEFSKRFRHIEILDTEKVPNEVLNGYKRLVVRLKSNE
[3]
  in vitro diastereoselectivity (P2/Ptotal): 20%
[4]
  in vivo diastereoselectivity (P2/Ptotal): 53%
